Results from the NIST ThermoML archive (doi:10.1016/j.jct.2015.08.013).
Numbers after ± are expanded uncertainties.

Assays:
[1] = xn = mol fraction of the nth substance listed; conditions: 100 kPa, Liquid, x1 = 1; for mass density: Vibrating tube method; for viscosity: Capillary tube (Ostwald / Ubbelohde) method
[2] = 100 kPa, Liquid; for viscosity: Capillary tube (Ostwald / Ubbelohde) method; for mass density: Vibrating tube method

Row | Structure (SMILES) | mass density ([1]; 293.15 K) | viscosity ([1]; 298.15 K) | mass density ([1]; 298.15 K) | viscosity ([1]; 303.15 K) | mass density ([1]; 303.15 K) | viscosity ([1]; 308.15 K) | mass density ([1]; 308.15 K) | viscosity ([1]; 313.15 K) | mass density ([1]; 313.15 K) | viscosity ([1]; 318.15 K) | mass density ([1]; 318.15 K) | viscosity ([1]; 323.15 K) | mass density ([1]; 323.15 K) | viscosity ([2]; 298.15 K) | viscosity ([2]; 303.15 K) | viscosity ([2]; 308.15 K) | viscosity ([2]; 313.15 K) | viscosity ([2]; 318.15 K) | viscosity ([2]; 323.15 K) | other results
1 | CN1CCCC1=O [N-methylpyrrolidone] + O=C1CCCO1 | 1032.66 ± 1.6 kg/m3 | 1.677 ± 0.036 mPa·s | 1028.17 ± 1.6 kg/m3 | 1.536 ± 0.033 mPa·s | 1023.6 ± 1.6 kg/m3 | 1.429 ± 0.03 mPa·s | 1019.49 ± 1.6 kg/m3 | 1.338 ± 0.029 mPa·s | 1014.74 ± 1.6 kg/m3 | 1.248 ± 0.027 mPa·s | 1010.2 ± 1.6 kg/m3 | 1.178 ± 0.025 mPa·s | 1005.89 ± 1.6 kg/m3 | – | – | – | – | – | – | –
2 | CC1COC(=O)O1 (stereo not given) [4-methyl-1,3-dioxolan-2-one] | – | – | – | – | – | – | – | – | – | – | – | – | – | 2.52 ± 0.052 mPa·s | 2.27 ± 0.047 mPa·s | 2.08 ± 0.043 mPa·s | 1.91 ± 0.04 mPa·s | 1.75 ± 0.036 mPa·s | 1.62 ± 0.034 mPa·s | –
3 | CN1CCCC1=O [N-methylpyrrolidone] | – | – | – | – | – | – | – | – | – | – | – | – | – | 1.677 ± 0.036 mPa·s | 1.536 ± 0.033 mPa·s | 1.429 ± 0.03 mPa·s | 1.338 ± 0.029 mPa·s | 1.248 ± 0.027 mPa·s | 1.178 ± 0.025 mPa·s | mass density ([2]; 293.15 K): 1032.66 ± 1.6 kg/m3; mass density ([2]; 298.15 K): 1028.17 ± 1.6 kg/m3; mass density ([2]; 303.15 K): 1023.6 ± 1.6 kg/m3; mass density ([2]; 308.15 K): 1019.49 ± 1.6 kg/m3; mass density ([2]; 313.15 K): 1014.74 ± 1.6 kg/m3; mass density ([2]; 318.15 K): 1010.2 ± 1.6 kg/m3; mass density ([2]; 323.15 K): 1005.89 ± 1.6 kg/m3
4 | CN1CCCC1=O [N-methylpyrrolidone] + CC1COC(=O)O1 | 1032.66 ± 1.6 kg/m3 | 1.677 ± 0.036 mPa·s | 1028.17 ± 1.6 kg/m3 | 1.536 ± 0.033 mPa·s | 1023.6 ± 1.6 kg/m3 | 1.429 ± 0.03 mPa·s | 1019.49 ± 1.6 kg/m3 | 1.338 ± 0.029 mPa·s | 1014.74 ± 1.6 kg/m3 | 1.248 ± 0.027 mPa·s | 1010.2 ± 1.6 kg/m3 | 1.178 ± 0.025 mPa·s | 1005.89 ± 1.6 kg/m3 | – | – | – | – | – | – | –
